ChEMBL document CHEMBL1201862, “PubChem BioAssay data set” (2004)
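1) Cells in 96-well plates. 2) Compound, 48 h, 5 concentrations. 3) Linear interpolation between surrounding doses. 4) Unreached endpoint = highest concentration. Here, GI50 denotes the concentration required for 50% inhibition of growth.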 Activity calls are given as the source filed them. Rule as the data show it: active = GI50 up to about 1.1 µM and inactive = higher.

Key:
Test in all cases: NCI-60 cell line screen, 48 h
DU-145 = test system: DU-145
MCF7 = test system: MCF7
SK-MEL-5 = test system: SK-MEL-5
CAKI-1 = test system: CAKI-1
NCI/ADR-RES = test system: NCI/ADR-RES
SNB-75 = test system: SNB-75
Hs-578T = test system: Hs-578T
A498 = test system: A498
M14 = test system: M14
NCI-H226 = test system: NCI-H226
TK-10 = test system: TK-10
DMS-273 = test system: DMS-273
M19-MEL = test system: M19-MEL
HOP-92 = test system: HOP-92
XF498 = test system: XF498
KM-20L2 = test system: KM-20L2
DLD-1 = test system: DLD-1
LXFL 529 = test system: LXFL 529
SNB-78 = test system: SNB-78
DMS-114 = test system: DMS-114

Structure (SMILES)	GI50 (DU-145)	GI50 (MCF7)	GI50 (SK-MEL-5)	GI50 (CAKI-1)	GI50 (NCI/ADR-RES)	GI50 (SNB-75)	GI50 (Hs-578T)	GI50 (A498)	GI50 (M14)	GI50 (NCI-H226)	GI50 (TK-10)	GI50 (DMS-273)	GI50 (M19-MEL)	GI50 (HOP-92)	GI50 (XF498)	GI50 (KM-20L2)	GI50 (DLD-1)	GI50 (LXFL 529)	GI50 (SNB-78)	GI50 (DMS-114)
N#CC1=C(N)N(c2ccccc2)C(c2ccco2)C1(C#N)C#N (configuration not stated)	19.4 µM (inactive)	17.4 µM (inactive)	17.4 µM (inactive)	30.6 µM (inactive)	27 µM (inactive)	20 µM (inactive)	36.6 µM (inactive)	21.8 µM (inactive)	20.6 µM (inactive)	18 µM (inactive)	16.4 µM (inactive)	–	–	–	–	–	–	–	–	–
COc1cc2c(cc1OC)C(C1(O)CCCCC1)NCC2 (configuration not stated)	–	–	> 100 µM (inactive)	–	–	> 100 µM (inactive)	–	–	> 100 µM (inactive)	> 100 µM (inactive)	> 100 µM (inactive)	> 100 µM (inactive)	> 100 µM (inactive)	> 100 µM (inactive)	> 100 µM (inactive)	> 100 µM (inactive)	> 100 µM (inactive)	> 100 µM (inactive)	–	–
CC(C)(C)OC(=O)NCC(=O)NC1c2ccsc2/C(=N/O)[C@H]1O (some centres not stated)	> 100 µM (inactive)	> 100 µM (inactive)	> 100 µM (inactive)	> 100 µM (inactive)	> 100 µM (inactive)	–	–	> 100 µM (inactive)	> 100 µM (inactive)	> 100 µM (inactive)	> 100 µM (inactive)	–	–	7.36 µM (inactive)	–	–	–	–	–	–
Cc1cc2c(C)nn(Cc3ccc(Cl)cc3)c2c(C#N)c1C	–	–	–	–	–	–	–	–	–	> 100 µM (inactive)	> 100 µM (inactive)	> 100 µM (inactive)	> 100 µM (inactive)	35.6 µM (inactive)	39.1 µM (inactive)	> 100 µM (inactive)	–	> 100 µM (inactive)	> 100 µM (inactive)	–
CSc1nc(N)c2c(-c3ccccc3)c3c(nc2n1)CCCC3	> 100 µM (inactive)	> 100 µM (inactive)	> 100 µM (inactive)	> 100 µM (inactive)	33 µM (inactive)	31.3 µM (inactive)	21.5 µM (inactive)	–	> 100 µM (inactive)	–	> 100 µM (inactive)	–	–	–	–	–	–	–	–	–
O=C(NO)c1coc2ccccc2c1=O	–	–	> 100 µM (inactive)	8.26 µM (inactive)	–	41.9 µM (inactive)	–	43.2 µM (inactive)	67.9 µM (inactive)	–	35.7 µM (inactive)	> 100 µM (inactive)	–	–	–	> 100 µM (inactive)	> 100 µM (inactive)	> 100 µM (inactive)	> 100 µM (inactive)	82 µM (inactive)
COc1ccc(-c2nnc(-c3ccncc3)o2)cc1	> 100 µM (inactive)	> 100 µM (inactive)	> 100 µM (inactive)	> 100 µM (inactive)	> 100 µM (inactive)	> 100 µM (inactive)	> 100 µM (inactive)	> 100 µM (inactive)	> 100 µM (inactive)	> 100 µM (inactive)	> 100 µM (inactive)	–	–	> 100 µM (inactive)	–	–	–	–	–	–
COc1cc2c(cc1Oc1ccc(OC)c3c1CC1c4c(cc(OC)c(OC)c4-3)CCN1C)CC1c3c(cc(OC)c(OC)c3-2)CCN1C (configuration not stated)	–	3.08 µM (inactive)	1.64 µM (inactive)	2.1 µM (inactive)	4.51 µM (inactive)	2.26 µM (inactive)	–	2.77 µM (inactive)	–	1.53 µM (inactive)	–	1.02 µM (active)	1.74 µM (inactive)	2.34 µM (inactive)	1.98 µM (inactive)	0.957 µM (active)	2.23 µM (inactive)	–	7.01 µM (inactive)	–
CS(=O)(=O)C(C#N)c1nc2ccccc2nc1Cl (configuration not stated)	> 100 µM (inactive)	> 100 µM (inactive)	–	> 66.5 µM (inactive)	> 36.5 µM (inactive)	> 100 µM (inactive)	70.6 µM (inactive)	> 28.1 µM (inactive)	> 100 µM (inactive)	> 100 µM (inactive)	> 32.6 µM (inactive)	> 100 µM (inactive)	5.68 µM (inactive)	> 100 µM (inactive)	> 100 µM (inactive)	–	4.18 µM (inactive)	> 100 µM (inactive)	> 100 µM (inactive)	> 100 µM (inactive)
CC(=C/c1ccccc1)/C=C1/NC(=S)N(/C=C2\C(=O)Oc3ccccc3C2=O)C1=O	45.8 µM (inactive)	39.7 µM (inactive)	25.6 µM (inactive)	–	42.2 µM (inactive)	> 100 µM (inactive)	–	56.4 µM (inactive)	54 µM (inactive)	67.9 µM (inactive)	40.7 µM (inactive)	–	–	7.78 µM (inactive)	–	–	–	–	–	–
CC(=O)ON1C(=O)c2cccc3cccc(c23)C1=O	15.1 µM (inactive)	16 µM (inactive)	13.2 µM (inactive)	17.9 µM (inactive)	34.3 µM (inactive)	–	23.6 µM (inactive)	25.8 µM (inactive)	21.6 µM (inactive)	–	31.7 µM (inactive)	–	–	> 100 µM (inactive)	–	–	–	–	–	–
